Assay results published in PubChem BioAssay AID1919002 (Molecular Pharmacology Branch, DTP, NCI, 2023).

System: 743489-274-T-PDC complex spheroid growth
Assay: Anticancer human tumor 743489-274-T-PDC patient-derived renal cell carcinoma cell line growth inhibition [AhR]
Details: for IC50: curve of first compound; for viability, T/C: stronger effect = lower value
Outline: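 Agents were dosed in half-log steps down from roughly clinical Cmax, or from 10 microM where Cmax was unknown, alone and with AhR antagonists. Read-out: percent test/control growth of tumor spheroids containing HUVEC and MSC stromal cells.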

[1] = second compound 0.1 µM, first compound 0.0316 µM
[2] = second compound 0.1 µM, first compound 0.1 µM
[3] = second compound 0.1 µM, first compound 0.316 µM
[4] = second compound 0.1 µM, first compound 1 µM
[5] = second compound 0.1 µM, first compound 3.16 µM
[6] = second compound 0.1 µM, first compound 10 µM
[7] = second compound 0.316 µM, first compound 0.0316 µM
[8] = second compound 0.316 µM, first compound 0.1 µM
[9] = second compound 0.316 µM, first compound 0.316 µM
[10] = second compound 0.316 µM, first compound 1 µM
[11] = second compound 0.316 µM, first compound 3.16 µM
[12] = second compound 0.316 µM, first compound 10 µM
[13] = second compound 1 µM, first compound 0.0316 µM
[14] = second compound 1 µM, first compound 0.1 µM
[15] = second compound 1 µM, first compound 0.316 µM
[16] = second compound 1 µM, first compound 1 µM
[17] = second compound 1 µM, first compound 3.16 µM
[18] = second compound 1 µM, first compound 10 µM
[19] = second compound 3.16 µM, first compound 0.0316 µM
[20] = second compound 3.16 µM, first compound 0.1 µM
[21] = second compound 3.16 µM, first compound 0.316 µM
[22] = second compound 3.16 µM, first compound 1 µM
[23] = second compound 3.16 µM, first compound 3.16 µM
[24] = second compound 3.16 µM, first compound 10 µM
[25] = second compound 10 µM, first compound 0.0316 µM
[26] = second compound 10 µM, first compound 0.1 µM
[27] = second compound 10 µM, first compound 0.316 µM
[28] = second compound 10 µM, first compound 1 µM
[29] = second compound 10 µM, first compound 3.16 µM
[30] = second compound 10 µM, first compound 10 µM
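Further: spheroids exposed to agents for 7 days before readout.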
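Wherever viability, T/C is given: 100% = DMSO vehicle control wells.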

Row | SMILES | IC50 (second compound 0.1 µM) [µM] | IC50 (second compound 0.316 µM) [µM] | IC50 (second compound 1 µM) [µM] | IC50 (second compound 3.16 µM) [µM] | IC50 (second compound 10 µM) [µM] | viability, T/C [1] [%] | viability, T/C [2] [%] | viability, T/C [3] [%] | viability, T/C [4] [%] | viability, T/C [5] [%] | viability, T/C [6] [%] | viability, T/C [7] [%] | viability, T/C [8] [%] | viability, T/C [9] [%] | viability, T/C [10] [%] | viability, T/C [11] [%] | viability, T/C [12] [%] | viability, T/C [13] [%] | viability, T/C [14] [%] | viability, T/C [15] [%] | further results
1 | COc1cc(C2c3cc4c(cc3C(OC3OC5COC(C)OC5C(O)C3O)C3COC(=O)C23)OCO4)cc(OC)c1O (stereo not given) + Cc1cncc(-c2nc(NCCc3c[nH]c4ccccc34)c3ncn(C(C)C)c3n2)c1 | > 10 | > 10 | > 10 | > 10 | > 10 | 97.7 | 88.2 | 88 | 96.8 | 82.3 | 74.6 | 94.1 | 82.6 | 78.2 | 80 | 75.2 | 78.5 | 90.2 | 87.6 | 80.5 | viability, T/C [16]: 78.1%; viability, T/C [17]: 80.4%; viability, T/C [18]: 80.8%; viability, T/C [19]: 95.3%; viability, T/C [20]: 87.9%; viability, T/C [21]: 91.4%; viability, T/C [22]: 92.6%; viability, T/C [23]: 80.1%; viability, T/C [24]: 74.8%; viability, T/C [25]: 131%; viability, T/C [26]: 117%; viability, T/C [27]: 95.6%; viability, T/C [28]: 110%; viability, T/C [29]: 102%; viability, T/C [30]: 100%
2 | NS(=O)(=O)OCC1CC(n2ccc3c(NC4CCc5ccccc54)ncnc32)CC1O (stereo not given) + Cc1cncc(-c2nc(NCCc3c[nH]c4ccccc34)c3ncn(C(C)C)c3n2)c1 | > 10 | > 10 | > 10 | > 10 | > 10 | 105 | 98.2 | 99.8 | 112 | 128 | 154 | 93.2 | 92.7 | 110 | 125 | 136 | 139 | 96.8 | 98.7 | 116 | viability, T/C [16]: 133%; viability, T/C [17]: 149%; viability, T/C [18]: 134%; viability, T/C [19]: 119%; viability, T/C [20]: 114%; viability, T/C [21]: 119%; viability, T/C [22]: 136%; viability, T/C [23]: 152%; viability, T/C [24]: 139%; viability, T/C [25]: 114%; viability, T/C [26]: 127%; viability, T/C [27]: 106%; viability, T/C [28]: 103%; viability, T/C [29]: 118%; viability, T/C [30]: 123%
